Measured values published in BindingDB's records for doi:10.1021/jm00087a006 (University of Michigan, 1992).
Positions of bridges follow the written chain, without caps; N, C: chain ends. Non-standard residues stand in square brackets, D forms with d. Residues, ends and D or L forms follow the SMILES beside them. Phe(4-NO2) = N[C@@H](Cc1ccc([N+](=O)[O-])cc1)C(=O)O; Phe(4-tBu) = CC(C)(C)c1ccc(C[C@H](N)C(=O)O)cc1; Phe(4-Cl) = N[C@@H](Cc1ccc(Cl)cc1)C(=O)O; Phe(3-F) = N[C@@H](Cc1cccc(F)c1)C(=O)O; Phe(4-F) = N[C@@H](Cc1ccc(F)cc1)C(=O)O; Phe(4-Me) = Cc1ccc(C[C@H](N)C(=O)O)cc1; Phe(2-F) = N[C@@H](Cc1ccccc1F)C(=O)O; mTyr = N[C@@H](Cc1cccc(O)c1)C(=O)O; Pen = CC(C)(S)[C@H](N)C(=O)O

How the values were obtained:
[1] = Compound was tested for the inhibition of [3H]- [D-Pen2, D-Pen5]-enkephalin (DPDPE) binding to Opioid receptor delta 1 in guinea pig brain homogenates
[2] = as above; remark: listed apart in the source
[3] = Compound was tested for the inhibition of [3H]- [D-Pen2, D-Pen5]-enkephalin (DPDPE) binding to opioid receptor delta in guinea pig brain homogenates

Work on `CC1(C)SSC[C@H](NC(=O)[C@@H](N)Cc2ccc(O)cc2)C(=O)N[C@@H](Cc2ccc(O)cc2)C(=O)N[C@@H]1C(=O)O` (H-YCY[Pen]-OH; disulfide 2-4) yielded a Ki [1] of 26 nM.
For `CC1(C)SSC[C@H](NC(=O)[C@@H](N)Cc2ccc(O)cc2)C(=O)N[C@@H](Cc2ccccc2F)C(=O)N[C@@H]1C(=O)O` (H-YC[Phe(2-F)][Pen]-OH; disulfide 2-4), the Ki [2] was 3.3 nM.
With `CC1(C)SSC[C@H](NC(=O)[C@@H](N)Cc2ccc(O)cc2)C(=O)N[C@@H](Cc2cccc(F)c2)C(=O)N[C@@H]1C(=O)O` (H-YC[Phe(3-F)][Pen]-OH; disulfide 2-4) the Ki [2] was 2.9 nM.
For `CC1(C)SSC[C@H](NC(=O)[C@@H](N)Cc2ccc(O)cc2)C(=O)N[C@@H](Cc2ccc(Cl)cc2)C(=O)N[C@@H]1C(=O)O` (H-YC[Phe(4-Cl)][Pen]-OH; disulfide 2-4), the Ki [2] was 0.98 nM.
With `CC1(C)SSC[C@H](NC(=O)[C@@H](N)Cc2ccc(O)cc2)C(=O)N[C@@H](Cc2ccc(F)cc2)C(=O)N[C@@H]1C(=O)O` (H-YC[Phe(4-F)][Pen]-OH; disulfide 2-4) the Ki [1] was 1.1 nM.
`Cc1ccc(C[C@@H]2NC(=O)[C@@H](NC(=O)[C@@H](N)Cc3ccc(O)cc3)CSSC(C)(C)[C@@H](C(=O)O)NC2=O)cc1` (H-YC[Phe(4-Me)][Pen]-OH; disulfide 2-4) showed a Ki [2] of 5.4 nM.
Work on `CC1(C)SSC[C@H](NC(=O)[C@@H](N)Cc2ccc(O)cc2)C(=O)N[C@@H](Cc2ccc([N+](=O)[O-])cc2)C(=O)N[C@@H]1C(=O)O` (H-YC[Phe(4-NO2)][Pen]-OH; disulfide 2-4) yielded a Ki [1] of 1.7 nM.
`CC(C)(C)c1ccc(C[C@@H]2NC(=O)[C@@H](NC(=O)[C@@H](N)Cc3ccc(O)cc3)CSSC(C)(C)[C@@H](C(=O)O)NC2=O)cc1` (H-YC[Phe(4-tBu)][Pen]-OH; disulfide 2-4) showed a Ki [1] of 648 nM and a Ki [3] of 37 nM.
Compound `CC1(C)SSC[C@H](NC(=O)[C@@H](N)Cc2ccc(O)cc2)C(=O)N[C@@H](Cc2cccc(O)c2)C(=O)N[C@@H]1C(=O)O` (H-YC[mTyr][Pen]-OH; disulfide 2-4) has a Ki [1] of 148 nM and a Ki [3] of 9.3 nM.
